Measured values published in patent US20250101028A1, “HETEROCYCLIC COMPOUNDS, COMPOSITIONS THEREOF, AND METHODS OF TREATMENT THEREWITH” (BeiGene, Ltd., priority 2022, published 2025).

Legend:
[1] = molecular target: T1, GST-tagged GDP-loaded KRAS G12V (amino acids 1-169) (Homo sapiens, UniProt P01116, G12V); experiment: KRAS G12V probe displacement assay (TR-FRET); assay type: binding; conditions: displacement of biotinylated probe 2 from GDP-loaded KRAS G12V
T1 construct: GST-tagged GDP-loaded KRAS G12V (amino acids 1-169); made in house; host or cells: E. coli
How it was run: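 GST-tagged GDP-loaded KRAS 1-169 (WT 3 nM; G12V 2 nM final) preincubated 1 h at 24 °C with serially diluted compound in HEPES pH 7.5 buffer, then biotinylated probe added (probe 1 60 nM for WT; probe 2 2.5 nM for G12V), 1 h. Anti-GST-Tb/streptavidin-XL665 TR-FRET 665/620 ratio; IC50 by four-parameter fit.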

[2] = molecular target: T2, GST-tagged GDP-loaded KRAS G12D (amin acids 1-188) (Homo sapiens, UniProt P01116, G12D); experiment: KRAS G12D probe displacement assay (TR-FRET); assay type: binding; conditions: displacement of biotinylated probe 2 from GDP-loaded KRAS G12D
T2 construct: GST-tagged GDP-loaded KRAS G12D (amin acids 1-188); made in house; host or cells: E. coli
Protocol: KRAS WT and KRAS G12D Probe Displacement Assay
This assay was used to identify compounds which bind to GDP-loaded KRAS protein and are able to displace a biotinylated probe occupying the KRAS binding site. GST-tagged GDP-loaded WT KRAS (amino acids 1-188) and GST-tagged GDP-loaded KRAS G12D (amin acids 1-188) were expressed in E. coli and purified in house. All protein and reaction solutions were prepared in assay buffer containing 50 mM HEPES pH7.5, 50 mM NaCl, 1 mM MgCl2, 1 mM TCEP, 0.01% BSA, and 0.008% Brij-35. Purified WT KRAS (3 nM final concentration) or KRAS G12D protein (0.5 nM final concentration) was incubated with a 3-fold serially diluted compound in the assay plate (384 well microplate, black, Corning). Plates are incubated at 24° C. for 1 hr. Following the incubation, biotinylated probe 1 (60 nM final assay concentration) for WT KRAS and biotinylated probe 2 (4 nM final assay concentration) for KRAS G12D was added to the assay plate, respectively. After 1 hr incubation at 24° C., Mab Anti-GST-Tb cryptate (Cisbio) and Streptavidin-XL665 (Cisbio) were added and further incubated at 24° C. for another 1 hr. The TR-FRET signals (ex337 nm, em665 nm/620 nm) were read on BMG PHERAstar FSX instrument. The inhibition percentage of KRAS protein binding with biotinylated probe in presence of increasing concentrations of compounds was calculated based on the ratio of fluorescence at 665 nm to that at 620 nm. The IC50 value of each compound was calculated from fitting the data to the four-parameter logistic model by Dotmatics.

[3] = tested on: pERK1/2(THR202/TYR204) level, SW620 cell line; experiment: KRAS G12V pERK assay (HTRF); assay type: cell-based; conditions: Homo sapiens, SW-620; SW620 cells, 2 hrs compound treatment
Protocol: (§1) SW620 cell line was used in this study. Cells were maintained in RPMI 1640 supplemented with 10% fetal bovine serum (Thermo Fisher), 50 units/mL penicillin and streptomycin (Thermo Fisher) and kept at 37° C. in a humidified atmosphere of 5% CO2 in air. Cells were reinstated from frozen stocks that were laid down within 30 passages from the original cells purchased. 40000 cells per well were seeded into a 96-well plate and incubated overnight. Cells were treated with a 10-point dilution series. The final compound concentration is from 0 to 10 M. After 2 hrs compound treatment, cells were lysed, and the pERK1/2(THR202/TYR204) level in the cell lysates was detected by HTRF kit (Cisbio). In brief, a total of 16 μL of cell lysate from each well of a 96-well plate was transferred to a 384-well white assay plate. Lysate from each well was incubated with 2 μL of Eu3+− cryptate (donor) labeled anti-phospho-ERK1/2 and 2 μL of D2 (acceptor) labeled anti-phospho-ERK1/2 antibodies (Cisbio) overnight in dark at room temperature. When donor and acceptor are in close proximity, excitation of the donor with laser triggers a Fluorescence Resonance Energy Transfer (FRET) towards the acceptor, which in turn fluoresces at 655 nm wavelength. FRET signals were measured using a PHERAstar FSX reader (BMG Labtech). IC50 determination was performed by fitting the curve of percent inhibition versus the log of the inhibitor concentration using Dotmatics.

[4] = tested on: pERK1/2(THR202/TYR204) level, AsPC-1 cell line; experiment: KRAS G12D pERK assay (HTRF); assay type: cell-based; conditions: Homo sapiens, ASPC1; AsPC-1 cells, 2 h compound treatment
Protocol: as §1, with “AsPC-1” for “SW620”, “RPMI-1640” for “RPMI 1640”, “30000” for “40000”, “μM.” for “M.”, “h” for “hrs”

T2 sequence (P01116 1-188 isoform P01116-2 G12D): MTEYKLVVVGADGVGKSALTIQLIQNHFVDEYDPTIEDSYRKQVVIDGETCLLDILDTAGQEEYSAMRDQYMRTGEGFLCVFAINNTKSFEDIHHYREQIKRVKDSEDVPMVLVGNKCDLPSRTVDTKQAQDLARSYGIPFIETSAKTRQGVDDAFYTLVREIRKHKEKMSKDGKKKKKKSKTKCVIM
T1 sequence (P01116 1-169 isoform P01116-2 G12V): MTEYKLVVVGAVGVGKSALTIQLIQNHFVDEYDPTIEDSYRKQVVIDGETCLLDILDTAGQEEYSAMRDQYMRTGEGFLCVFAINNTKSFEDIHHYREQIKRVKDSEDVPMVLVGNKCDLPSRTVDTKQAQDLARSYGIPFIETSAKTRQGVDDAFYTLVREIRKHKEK

Row | Compound | IC50 [1] | IC50 [2] | IC50 [3] | IC50 [4]
1 | Nc1nc2c(-c3c(C(F)(F)F)cc4c(NC5CC5)nc(OC[C@@]56CCCN5C[C@H](F)C6)nc4c3F)ccc(F)c2s1 [Example 1, 4-(4-(cyclopropylamino)-8-fluoro-2-(((2R,7aS)-2-fluorotetrahydro-1H-pyrrolizin-7a(5H)-yl)methoxy)-6-(trifluoromethyl)quinazolin-7-yl)-7-fluorobenzo[d]thiazol-2-amine] | 4.2 nM | 22 nM | 129 nM | 2460 nM
2 | CC1C(C#N)CN1c1nc(OC[C@@]23CCCN2C[C@H](F)C3)nc2c(F)c(-c3ccc(F)c4sc(N)nc34)c(C(F)(F)F)cc12 (stereo partly drawn) [Example 43, 1-(7-(2-amino-7-fluorobenzo[d]thiazol-4-yl)-8-fluoro-2-(((2R,7aS)-2-fluorotetrahydro-1H-pyrrolizin-7a(5H)-yl)methoxy)-6-(trifluoromethyl)quinazolin-4-yl)-2-methylazetidine-3-carbonitrile] | 7.1 nM |  | 356 nM | 
3 | N#CC1CCN(c2nc(OC[C@@]34CCCN3C[C@H](F)C4)nc3c(F)c(-c4ccc(F)c5sc(N)nc45)c(C(F)(F)F)cc23)C1 (stereo partly drawn) [Example 60, 1-(7-(2-amino-7-fluorobenzo[d]thiazol-4-yl)-8-fluoro-2-(((2R,7aS)-2-fluorotetrahydro-1H-pyrrolizin-7a(5H)-yl)methoxy)-6-(trifluoromethyl)quinazolin-4-yl)pyrrolidine-3-carbonitrile] | 2.1 nM |  | 413 nM | 
4 | N#CC1CCN(c2nc(OC[C@@]34CCCN3C[C@H](F)C4)nc3c(F)c(-c4ccc(F)c5sc(N)nc45)c(C(F)(F)F)cc23)CC1 [Example 68, 1-(7-(2-amino-7-fluorobenzo[d]thiazol-4-yl)-8-fluoro-2-(((2R,7aS)-2-fluorotetrahydro-1H-pyrrolizin-7a(5H)-yl)methoxy)-6-(trifluoromethyl)quinazolin-4-yl)piperidine-4-carbonitrile] | 0.77 nM | 6.6 nM | 76 nM | 686 nM
5 | N#CC1CCCN(c2nc(OC[C@@]34CCCN3C[C@H](F)C4)nc3c(F)c(-c4ccc(F)c5sc(N)nc45)c(C(F)(F)F)cc23)CC1 (stereo partly drawn) [Example 82, 1-(7-(2-amino-7-fluorobenzo[d]thiazol-4-yl)-8-fluoro-2-(((2R,7aS)-2-fluorotetrahydro-1H-pyrrolizin-7a(5H)-yl)methoxy)-6-(trifluoromethyl)quinazolin-4-yl)azepane-4-carbonitrile] | 0.74 nM |  | 199 nM | 
6 | Nc1nc2c(-c3c(C(F)(F)F)cc4c(N5CCC6(CC5)CNC(=O)O6)nc(OC[C@@]56CCCN5C[C@H](F)C6)nc4c3F)ccc(F)c2s1 [Example 86, 8-(7-(2-amino-7-fluorobenzo[d]thiazol-4-yl)-8-fluoro-2-(((2R,7aS)-2-fluorotetrahydro-1H-pyrrolizin-7a(5H)-yl)methoxy)-6-(trifluoromethyl)quinazolin-4-yl)-1-oxa-3,8-diazaspiro[4.5]decan-2-one] | 0.8 nM | 23 nM | 715 nM | 5440 nM
7 | CN1CC2(CCN(c3nc(OC[C@@]45CCCN4C[C@H](F)C5)nc4c(F)c(-c5ccc(F)c6sc(N)nc56)c(C(F)(F)F)cc34)CC2)OC1=O [Example 87, 8-(7-(2-amino-7-fluorobenzo[d]thiazol-4-yl)-8-fluoro-2-(((2R,7aS)-2-fluorotetrahydro-1H-pyrrolizin-7a(5H)-yl)methoxy)-6-(trifluoromethyl)quinazolin-4-yl)-3-methyl-1-oxa-3,8-diazaspiro[4.5]decan-2-one] | 0.77 nM |  | 108 nM | 
8 | C[C@@H]1C[C@@H](C#N)CCN1c1nc(OC[C@@]23CCCN2C[C@H](F)C3)nc2c(F)c(-c3ccc(F)c4sc(N)c(C#N)c34)c(C(F)(F)F)cc12 [Example 100, (2R,4S)-1-(7-(2-amino-3-cyano-7-fluorobenzo[b]thiophen-4-yl)-8-fluoro-2-(((2R,7aS)-2-fluorotetrahydro-1H-pyrrolizin-7a(5H)-yl)methoxy)-6-(trifluoromethyl)quinazolin-4-yl)-2-methylpiperidine-4-carbonitrile] | 0.74 nM | 0.34 nM | 18 nM | 56 nM
9 | C[C@@H]1C[C@@H](C#N)CCN1c1nc(OC[C@@]23CCCN2C[C@H](F)C3)nc2c(F)c(-c3ccc(F)c4sc(N)c(C#N)c34)c(Cl)cc12 [Example 101, (2R,4S)-1-(7-(2-amino-3-cyano-7-fluorobenzo[b]thiophen-4-yl)-6-chloro-8-fluoro-2-(((2R,7aS)-2-fluorotetrahydro-1H-pyrrolizin-7a(5H)-yl)methoxy)quinazolin-4-yl)-2-methylpiperidine-4-carbonitrile] | 0.28 nM |  | 11 nM | 
10 | C[C@@]1(O)CCCN(c2nc(OC[C@@]34CCCN3C[C@H](F)C4)nc3c(F)c(-c4cc(N)cc(Cl)c4C(F)(F)F)ncc23)C1 [Example 128, (R)-1-(7-(5-amino-3-chloro-2-(trifluoromethyl)phenyl)-8-fluoro-2-(((2R,7aS)-2-fluorotetrahydro-1H-pyrrolizin-7a(5H)-yl)methoxy)pyrido[4,3-d]pyrimidin-4-yl)-3-methylpiperidin-3-ol] | 2.6 nM | 1.2 nM | 84 nM | 76 nM
